MIC and zone of inhibition data for 21 molecules are collected here from ChEMBL document CHEMBL4342421, “Current scenario of tetrazole hybrids for antibacterial activity” (Eur J Med Chem, 2019).

≈ marks a conversion by molar mass, not a printed value.

What all share (assay type): functional
In assay [1] the test system is Escherichia coli. In words: Antimicrobial activity against Escherichia coli.
The subject of assay [2] is Pseudomonas aeruginosa. In words: Antimicrobial activity against Pseudomonas aeruginosa.
In assay [3] the test system is Staphylococcus aureus. In words: Antimicrobial activity against Staphylococcus aureus.
The subject of assay [4] is Candida albicans. In words: Antifungal activity against Candida albicans.
The subject of assay [5] is Aspergillus niger. In words: Antifungal activity against Aspergillus niger.
For another assay, the system named is Bacillus subtilis. In words: Antimicrobial activity against Bacillus subtilis.
Assay [6] deals with Staphylococcus aureus. In words: Antimicrobial activity against Staphylococcus aureus assessed as zone of inhibition at 250 ug/ml. Conditions: read-out: IZ.
A further assay relates to Bacillus cereus. In words: Antimicrobial activity against Bacillus cereus assessed as zone of inhibition at 250 ug/ml. Conditions: read-out: IZ.
In assay [7] the test system is Escherichia coli. In words: Antimicrobial activity against Escherichia coli assessed as zone of inhibition at 250 ug/ml. The following applies: read-out: IZ.
Assay [8] concerns Pseudomonas aeruginosa. In words: Antimicrobial activity against Pseudomonas aeruginosa assessed as zone of inhibition at 250 ug/ml. The following applies: read-out: IZ.
For assay [9], the system named is Candida albicans. In words: Antifungal activity against Candida albicans assessed as zone of inhibition at 250 ug/ml. Conditions: read-out: IZ.
Assay [10] relates to Aspergillus niger. In words: Antifungal activity against Aspergillus niger assessed as zone of inhibition at 250 ug/ml. Conditions: read-out: IZ.

As a reminder, the MIC is the lowest concentration found to suppress growth. Low values mean inhibition by little substance, high ones a need for much substance. With `N#Cc1cn2c(NC3CCCCC3)c(-c3cc4ccccc4n4nnnc34)nc2s1`, the MIC in the assay with Escherichia coli [1], against Pseudomonas aeruginosa [2] and in the assay with Staphylococcus aureus [3] was above 320 µg/mL each time.
Turning to `Cc1ccc2cc(C3CC(c4ccccc4)=NN3C(N)=S)c3nnnn3c2c1` (configuration not stated), the MIC in the assay with Escherichia coli [1], against Pseudomonas aeruginosa [2], against Staphylococcus aureus [3], against Candida albicans [4] and in the assay with Aspergillus niger [5] was 3.12 to 100 µg/mL (≈ 8.07 to 258 µM) throughout.
As to `c1ccc(CCNc2c(-c3cc4ccccc4n4nnnc34)nc3sccn23)cc1`, the MIC in the assay with Escherichia coli [1], against Pseudomonas aeruginosa [2] and in the assay with Staphylococcus aureus [3] was above 320 µg/mL throughout.
For `Cc1ccc2c(c1)cc(/C=C/C(=O)c1ccc(Cl)cc1)c1nnnn12`, the MIC against Escherichia coli [1], against Pseudomonas aeruginosa [2], with Staphylococcus aureus [3], in the assay on Candida albicans [4] and in the assay on Aspergillus niger [5] was 6.25 to 100 µg/mL (≈ 17.9 to 287 µM) throughout.
In the case of `O=c1c(OCc2nnn[nH]2)c(-c2ccc(F)cc2)oc2cc(Cl)cc(Cl)c12`, the MIC in the assay on Escherichia coli [1], against Pseudomonas aeruginosa [2], against Staphylococcus aureus [3] and with Bacillus subtilis was 50 to 400 µg/mL (≈ 123 to 982 µM) in each case.
As to `Cc1ccc2cc(/C=C/C(=O)c3ccc(Cl)cc3)c3nnnn3c2c1`, the MIC in the assay with Escherichia coli [1], in the assay on Pseudomonas aeruginosa [2], against Staphylococcus aureus [3], in the assay on Candida albicans [4] and against Aspergillus niger [5] was 6.25 to 100 µg/mL (≈ 17.9 to 287 µM) in each case.
In the case of `O=c1c(OCc2nnn[nH]2)c(-c2ccc(F)cc2)oc2cc(Cl)ccc12`, the minimum inhibitory concentration (MIC) in the assay with Escherichia coli [1], in the assay on Pseudomonas aeruginosa [2], against Staphylococcus aureus [3] and in the assay on Bacillus subtilis was 50 to 400 µg/mL (≈ 134 to 1070 µM) throughout.
Regarding `Cc1ccc2c(c1)cc(/C=C/C(=O)c1ccccc1)c1nnnn12`, the minimal inhibitory concentration (MIC) against Escherichia coli [1], in the assay with Pseudomonas aeruginosa [2], against Staphylococcus aureus [3], against Candida albicans [4] and with Aspergillus niger [5] was 6.25 to 100 µg/mL (≈ 19.9 to 318 µM) throughout.
`CC(=O)N1N=C(Cn2cc(-c3nn(-c4ccncc4)cc3-c3nnnn3-c3ccc(C(F)(F)F)cc3)c3cc(Cl)ccc32)OC1(C)c1ccc(C(F)(F)F)cc1` (configuration not stated): the zone of inhibition at 250 µg/mL with Staphylococcus aureus [6], with Bacillus cereus, in the assay with Escherichia coli [7], in the assay with Pseudomonas aeruginosa [8], in the assay with Candida albicans [9] and in the assay with Aspergillus niger [10] was 8 to 20 mm each time.
Consider `Cc1ccc2cc(/C=C/C(=O)c3ccccc3)c3nnnn3c2c1`, for which the minimum inhibitory concentration (MIC) with Escherichia coli [1], against Pseudomonas aeruginosa [2], in the assay on Staphylococcus aureus [3], against Candida albicans [4] and against Aspergillus niger [5] was 6.25 to 100 µg/mL (≈ 19.9 to 318 µM) each time.
Turning to `c1ccc(C(c2ccccc2)(c2ccccc2)n2nnnc2-c2ccccc2-c2ccc(CNn3cnnc3)cc2)cc1`, the values for the MIC against Escherichia coli [1] and in the assay on Bacillus subtilis were 22.4 µg/mL (≈ 40 µM) and 24.8 µg/mL (≈ 44.3 µM), respectively.
In the case of `N#Cc1cn2c(NCCc3ccccc3)c(-c3cc4ccccc4n4nnnc34)nc2s1`, the MIC with Escherichia coli [1], against Pseudomonas aeruginosa [2] and with Staphylococcus aureus [3] was above 320 µg/mL throughout.
Regarding `COc1ccc(Nc2c(-c3cc4ccccc4n4nnnc34)nc3sc(C#N)cn23)cc1`, the MIC against Escherichia coli [1], with Pseudomonas aeruginosa [2] and with Staphylococcus aureus [3] was above 320 µg/mL in each case.
In the case of `COc1ccc(C(=O)/C=C/c2cc3ccc(C)cc3n3nnnc23)cc1`, the minimal inhibitory concentration (MIC) in the assay with Escherichia coli [1], against Pseudomonas aeruginosa [2], against Staphylococcus aureus [3], against Candida albicans [4] and in the assay with Aspergillus niger [5] was 6.25 to 100 µg/mL (≈ 18.1 to 290 µM) each time.
On to `Cc1ccc2cc(/C=C/C(=O)c3ccccn3)c3nnnn3c2c1`, for which the MIC against Escherichia coli [1], in the assay with Pseudomonas aeruginosa [2], in the assay on Staphylococcus aureus [3], with Candida albicans [4] and against Aspergillus niger [5] was 6.25 to 100 µg/mL (≈ 19.8 to 317 µM) in each case.
As for `Cc1ccc2c(c1)cc(/C=C/C(=O)c1cccs1)c1nnnn12`, the minimum inhibitory concentration (MIC) in the assay on Escherichia coli [1], in the assay on Pseudomonas aeruginosa [2], against Staphylococcus aureus [3], against Candida albicans [4] and against Aspergillus niger [5] was 6.25 to 100 µg/mL (≈ 19.5 to 312 µM) throughout.
Take `COc1ccc(/C=C2\SC(=O)N(Cc3ccc(-c4ccccc4-c4nnn[nH]4)cc3)C2=O)c(OC)c1`: the MIC in the assay with Escherichia coli [1] and with Bacillus subtilis was 7.75 to 35.4 µg/mL (≈ 15.5 to 70.9 µM) in each case.
For the molecule `CC(C)(C)Nc1c(-c2cc3ccccc3n3nnnc23)nc2sccn12`, the MIC in the assay on Escherichia coli [1], in the assay with Pseudomonas aeruginosa [2] and against Staphylococcus aureus [3] was above 320 µg/mL in each case.
For the molecule `O=C1S/C(=C\c2ccc(Cl)cc2)C(=O)N1Cc1ccc(-c2ccccc2-c2nnn[nH]2)cc1`, the MIC in the assay on Escherichia coli [1] and against Bacillus subtilis was 7.75 to 35.4 µg/mL (≈ 16.4 to 74.7 µM) each time.
As for `O=C1S/C(=C\c2ccccc2Cl)C(=O)N1Cc1ccc(-c2ccccc2-c2nnn[nH]2)cc1`, the MIC against Escherichia coli [1] and against Bacillus subtilis was 7.75 to 35.4 µg/mL (≈ 16.4 to 74.7 µM) throughout.
Turning to `Cc1ccc2cc(C3CC(c4ccc(Cl)cc4)=NN3C(N)=S)c3nnnn3c2c1` (configuration not stated), the MIC in the assay on Escherichia coli [1], in the assay with Pseudomonas aeruginosa [2], in the assay with Staphylococcus aureus [3], with Candida albicans [4] and against Aspergillus niger [5] was 3.12 to 100 µg/mL (≈ 7.41 to 237 µM) in each case.
